For eight compounds, Activity results are on record in ChEMBL document CHEMBL1126361, “A mechanism-based inactivator of E. coli -hydroxydecanoyl thiolester dehydrase designed to crosslink active site amino acids” (Bioorg Med Chem Lett, 1992).

The test has as its system Escherichia coli. The test can be described thus: Evaluation of Beta decanoyl thioester dehydrase inactivation for the compound was determined as percent enzyme activity remaining. Details: concentration or dose not given beside the values.

Regarding `CCCCCC/C=C/CC(=O)CCl`, the Activity was 100%.

In turn, `CCCCCCCCCC(=O)C=[N+]=[N-]` showed an Activity of 97%.

In turn, `CCCCCCCCCC(=O)CCl` displayed an Activity of 99%.

Take `CCCCCCC=C=CC(=O)C=[N+]=[N-]`: the Activity was determined as 0%.

`CCCCCCC#CCC(=O)CCl` came in with an Activity of 0%.

Regarding `CCCCCC/C=C/CC(=O)C=[N+]=[N-]`, the Activity was determined as 100%.

For the compound `CCCCCCC#CCC(=O)C=[N+]=[N-]`, the Activity was 0%.

`CCCCCCCCCC(=O)CBr` gave an Activity of 89%.
